The source of these data is patent US20130287807A1, “COMPOUNDS FOR TREATING SYMPTOMS ASSOCIATED WITH PARKINSON'S DISEASE” (priority 2008, published 2013).

Test [1] has as its system monoclonal antibody MV-001. Briefly: In vitro binding assay (ELISA), BSA-coupled peptides, parental antibody MV-001. Also on record: species or system C57/B16 mice. The note with it: Table 1C; peptide-BSA on plate, compared to original epitope. On the procedure: (§1) Peptides derived from Phage Display as well as variants thereof were coupled to BSA and bound to ELISA plates (1 μM; as indicated in the respective figures) and subsequently incubated with the monoclonal antibody that was used for the screening procedure to analyse binding capacity of identified peptides.
Legend to Table 1C: the binding capacity is coded by the following binding code: 1:X describes the dilution factor of the parental AB
A general note: In an ELISA, binding on a coated surface is turned into a signal by an enzyme label.

The test system of test [2] is monoclonal antibody MV-001. Briefly: In vitro inhibition assay (ELISA), MV-001 binding to original epitope. Also on record: species or system C57/B16 mice. The following applies: Table 2C; OD at 10 ug peptide compared to original peptide. As for the experimental part:
(§2) Different amounts of peptides (concentrations ranging from 10 μg to 0.08 μg; serial dilutions; for MV-002: concentrations ranging from 5 μg to 0.03 μg; serial dilutions), derived from Phage Display were incubated with the monoclonal antibody that was used for the screening procedure. Peptides diminishing subsequent binding of the antibody to the original epitope coated on ELISA plates were considered as inhibiting in this assay.
Legend to Table 2C: the inhibition capacity is coded by the following code: Weak inhibition means more peptide is required to lower AB binding than with the original epitope; strong inhibition means similar peptide amounts are required for mimotope and original epitope for lowering AB binding. Mimotopes are compared to the original peptide as standard. OD at 10 ug peptide used in the assay is used to calculate the competition capacity compared to original peptide.

In test [3] the test system is Aβ/truncated/modified forms. In words: In vivo characterisation of mimotopes: detection of Aβ/truncated/modified forms. Set-up: species or system C57/B16 mice; key: +: All peptides listed in Table 4 mount specific immune reactions against full length and/or truncated and modified forms of Aβ or fragments thereof. The following applies: Table 4, MV-001 derived mimotopes. On the procedure:
Inhibiting as well as non-inhibiting peptides were coupled to KLH and injected into mice (wildtype C57/B16 mice; subcutaneous injection into the flank) together with an appropriate adjuvant (aluminium hydroxide). Animals were vaccinated 3-6 times in biweekly intervals and sera were taken biweekly as well. Titers to injected peptides, as well as to an irrelevant peptide were determined with every serum. Furthermore, titers against the recombinant human Aβ protein, and against original peptides were determined respectively. In general sera were analysed by reaction against peptides coupled to Bovine Serum Albumin (BSA) and recombinant full length proteins which were immobilised on ELISA plates. Titers were determined using anti mouse IgG specific antibodies. For detailed results see FIGS. 15, 16 and 17 respectively and FIGS. 23, 24 and 25 respectively.
(§3) Female C57/b16 mice, 5-6 mice per group, were subcutaneously immunized with 30 μg peptide coupled to KLH. Control groups were administered original epitope-KLH conjugates respectively. As adjuvant alum was used (always 1 mg per mouse). […] The in vitro ELISA assay to determine the antibody titer was performed with sera of single mice after each vaccination in a two week interval (see FIGS. 15 and 16 respectively). The wells of the ELISA plate were coated with mimotope-BSA conjugate and an irrelevant peptide-BSA conjugate (negative control). The positive control was performed by reaction of the parental antibody with the respective mimotope-BSA conjugate. The detection was performed with anti-mouse IgG. Additionally, recombinant proteins were immobilised on ELISA plates and sera reacted accordingly. FIGS. 15 to 17 show representative examples for assays used to characterise mimotopes in vivo.
as §3, with “FIGS. 25” for “FIGS. 15”, “and 26” for “and 16”, “respectively). Titers were calculated as OD max/2 in all figures shown.” for “respectively).”, “FIGS. 23, 24 and 25” for “FIGS. 15 to 17”

Test [4] has as its system monoclonal antibody MV-002. Briefly: In vitro binding assay (ELISA), BSA-coupled peptides, parental antibody MV-002. The following applies: Table 1 (MV-002); peptide-BSA on plate, compared to original epitope. Also on record: species or system C57/B16 mice. As for the experimental part:
as §1
Legend to Table 1: the binding capacity is coded by the following binding code: 1:X describes the dilution factor of the parental AB. Ac- . . . indicates acetylated AA.

The subject of test [5] is monoclonal antibody MV-002. In words: In vitro inhibition assay (ELISA), MV-002 binding to original epitope. Set-up: species or system C57/B16 mice. The note with it: Table 2 (MV-002); OD at 5 ug peptide compared to original peptide. On the procedure:
as §2
Legend to Table 2: the inhibition capacity is coded by the following code: Weak inhibition means more peptide is required to lower AB binding than with the original epitope; strong inhibition means similar peptide amounts are required for mimotope and original epitope for lowering AB binding. Mimotopes are compared to the original peptide as standard. OD at 5 ug peptide used in the assay is used to calculate the competition capacity compared to original peptide.

The target of test [6] is monoclonal antibody MV-001. Briefly: ELISA on peptide-BSA; code 2 = medium binding, OD halfmax 1:4000-20000.
For test [7], the target named is monoclonal antibody MV-001. Briefly: inhibition ELISA, competitor coated original epitope p4371; code 1 = weaker than original epitope.
Test [8] addresses monoclonal antibody MV-001. Briefly: ELISA on peptide-BSA; code 3 = strong binding, OD halfmax 1:>20000.

As for TSVFRHC [p4383], the “Binding Capacity” value in test [1] is recorded as 3 (strong binding :>20000). Also, the “Inhibition Capacity” value in test [2] was 1 (Weaker than original epitope (OD of 10 ug peptide below 3 times of original peptide)). Also, the “Detection of Aβ/truncated/modified forms” value in test [3] is reported as “+”.

As to LMFRHNC [p4386], the “Binding Capacity” value in test [1] is given as 3 (strong binding :>20000). For the same molecule, the “Inhibition Capacity” value in test [2] was 1 (Weaker than original epitope (OD of 10 ug peptide below 3 times of original peptide)). Further, the “Detection of Aβ/truncated/modified forms” value in test [3] was “+”.

In the case of SQFRHYC [p4385], in test [1], the “Binding Capacity” value is recorded as 2 (medium binding :4000-20000). In addition, the “Inhibition Capacity” value in test [2] is recorded as 1 (Weaker than original epitope (OD of 10 ug peptide below 3 times of original peptide)). Moreover, in test [3], the “Detection of Aβ/truncated/modified forms” value is recorded as “+”.

Consider ELFKHHLC [p4714], for which the “Binding Capacity” value in test [1] is 3 (strong binding :>20000). Moreover, the “Detection of Aβ/truncated/modified forms” value in test [3] was “+”.

On to HQKMIFC [p4794], for which the “Binding Capacity” value in test [4] is reported as 2 (medium binding :40000-320000). In test [5], the “Inhibition Capacity” value was 1 (Weaker than original epitope (OD of peptide below 4, 6 times of original peptide)).

SPNQFRHC [p4707]: in test [1], the “Binding Capacity” value is recorded as 3 (strong binding :>20000). Besides, the “Inhibition Capacity” value in test [2] is given as 1 (Weaker than original epitope (OD of 10 ug peptide below 3 times of original peptide)). In test [3], the “Detection of Aβ/truncated/modified forms” value is on record as “+”.

Take DEHPFRHC [p4730]: the “Binding Capacity” value in test [1] is on record as 3 (strong binding :>20000). In addition, in test [2], the “Inhibition Capacity” value was 1 (Weaker than original epitope (OD of 10 ug peptide below 3 times of original peptide)). Further, the “Detection of Aβ/truncated/modified forms” value in test [3] was “+”.

With TEFRHKAC [p4753], the “Binding Capacity” value in test [1] was 3 (strong binding :>20000). For the same molecule, the “Inhibition Capacity” value in test [2] is 2 (strong inhibition (as original epitope; OD of 10 ug peptide below 2 times of original peptide)). In test [3], the “Detection of Aβ/truncated/modified forms” value is listed as “+”.

Take TLHEFRHC [p4715]: the “Binding Capacity” value in test [1] is given as 3 (strong binding :>20000). In addition, the “Inhibition Capacity” value in test [2] is given as 2 (strong inhibition (as original epitope; OD of 10 ug peptide below 2 times of original peptide)). In addition, the “Detection of Aβ/truncated/modified forms” value in test [3] is on record as “+”.

On to NDAKIVFC [p4667], for which the “Binding Capacity” value in test [4] is 3 (strong binding :>320000). Further, the “Inhibition Capacity” value in test [5] is given as 1 (Weaker than original epitope (OD of peptide below 4, 6 times of original peptide)).

SHQRLWFC [p4674]: the “Binding Capacity” value in test [4] was 3 (strong binding :>320000). Also, the “Inhibition Capacity” value in test [5] is given as 1 (Weaker than original epitope (OD of peptide below 4, 6 times of original peptide)).

As to YEFRHAQC [p4748], the “Binding Capacity” value in test [1] is 3 (strong binding :>20000). Also, the “Detection of Aβ/truncated/modified forms” value in test [3] is reported as “+”.

In the case of GEILFGMC [p4689], the “Binding Capacity” value in test [4] was 3 (strong binding :>320000). Further, the “Inhibition Capacity” value in test [5] was 1 (Weaker than original epitope (OD of peptide below 4, 6 times of original peptide)).

EEFKYSC [p4393]: the OD halfmax 1:X (dilution factor of the parental antibody at half-maximal OD) (dilutionfactor(1:x)) in test [6] lay in the range of 4000 to 20000. For the same molecule, the OD at 10 ug peptide relative to OD of original peptide (inhibition ELISA) in test [7] was 2 to 3 fold.

Take QSEFKHWC [p4738]: in test [8], the OD halfmax 1:X (dilution factor of the parental antibody at half-maximal OD) (dilutionfactor(1:x)) was above 20000. This molecule also had an OD at 10 ug peptide relative to OD of original peptide (inhibition ELISA) in test [7] of 2 to 3 fold.

Consider SQFRHYC [p4385], for which the OD halfmax 1:X (dilution factor of the parental antibody at half-maximal OD) (dilutionfactor(1:x)) in test [6] was in the range of 4000 to 20000. Further, the OD at 10 ug peptide relative to OD of original peptide (inhibition ELISA) in test [7] was in the range of 2 to 3 fold.

Take TPFRHTC [p4384]: the OD halfmax 1:X (dilution factor of the parental antibody at half-maximal OD) (dilutionfactor(1:x)) in test [6] is 4000 to 20000. Also, the OD at 10 ug peptide relative to OD of original peptide (inhibition ELISA) in test [7] was 2 to 3 fold.

As to SHFRHGC [p4389], the OD halfmax 1:X (dilution factor of the parental antibody at half-maximal OD) (dilutionfactor(1:x)) in test [6] fell in the range of 4000 to 20000. The same molecule came in with an OD at 10 ug peptide relative to OD of original peptide (inhibition ELISA) in test [7] of 2 to 3 fold.

Turning to TSFRHGC [p4382], the OD halfmax 1:X (dilution factor of the parental antibody at half-maximal OD) (dilutionfactor(1:x)) in test [6] lay in the range of 4000 to 20000. Moreover, in test [7], the OD at 10 ug peptide relative to OD of original peptide (inhibition ELISA) is 2 to 3 fold.

Regarding DGLLFKHC [p4741], the OD halfmax 1:X (dilution factor of the parental antibody at half-maximal OD) (dilutionfactor(1:x)) in test [8] was above 20000. In test [7], this molecule gave an OD at 10 ug peptide relative to OD of original peptide (inhibition ELISA) of 2 to 3 fold.

For the molecule SAFRHHC [p4387], the OD halfmax 1:X (dilution factor of the parental antibody at half-maximal OD) (dilutionfactor(1:x)) in test [6] lay within 4000 to 20000. The molecule also had an OD at 10 ug peptide relative to OD of original peptide (inhibition ELISA) in test [7] of 2 to 3 fold.

Take QFKHDLC [p4391]: in test [6], the OD halfmax 1:X (dilution factor of the parental antibody at half-maximal OD) (dilutionfactor(1:x)) fell in the range of 4000 to 20000. Further, in test [7], the OD at 10 ug peptide relative to OD of original peptide (inhibition ELISA) lay in the range of 2 to 3 fold.

QDFRHYC [p4380]: in test [6], the OD halfmax 1:X (dilution factor of the parental antibody at half-maximal OD) (dilutionfactor(1:x)) was in the range of 4000 to 20000. Besides, in test [7], the OD at 10 ug peptide relative to OD of original peptide (inhibition ELISA) was 2 to 3 fold.

In the case of EELRHSVC [p4746], in test [8], the OD halfmax 1:X (dilution factor of the parental antibody at half-maximal OD) (dilutionfactor(1:x)) was above 20000. The OD at 10 ug peptide relative to OD of original peptide (inhibition ELISA) in test [7] was in the range of 2 to 3 fold.

In the case of SEFKHC [p4801], the OD halfmax 1:X (dilution factor of the parental antibody at half-maximal OD) (dilutionfactor(1:x)) in test [8] was above 20000. In test [7], this molecule had an OD at 10 ug peptide relative to OD of original peptide (inhibition ELISA) of 2 to 3 fold.

With LPFRHGC [p4388], in test [6], the OD halfmax 1:X (dilution factor of the parental antibody at half-maximal OD) (dilutionfactor(1:x)) fell in the range of 4000 to 20000. This molecule also displayed an OD at 10 ug peptide relative to OD of original peptide (inhibition ELISA) in test [7] of 2 to 3 fold.

With ADHDFRHC [p4740], in test [8], the OD halfmax 1:X (dilution factor of the parental antibody at half-maximal OD) (dilutionfactor(1:x)) is above 20000. This molecule also registered an OD at 10 ug peptide relative to OD of original peptide (inhibition ELISA) in test [7] of 2 to 3 fold.
